Measured values taken from article PMC7250851, “Discovery of a new sialic acid binding region that regulates Siglec-7” (Scientific Reports, 2020).
pIC50: −log10 of the molar value. “Also recorded” adds a separate entry of the source.

What was measured:
Siglec-7V WT = test system: T1, Siglec-7V WT; test: STD-NMR and 1H-NMR titration; format: binding, human; conditions: protein:ligand 1:20, 10 °C, pH 7.9
T1 construct: DNA fragments encoding human Siglec-7 V-set domain (residues 18–144) and the mutants were sub-cloned into the pCold-PDI vector; (His)6-PDI (cleaved yes); made in house; host or cells: Escherichia coli Origami B (DE3)
Procedure: (§1) Recombinant human Siglec-7 V-set domain and its mutants (R67A, R124A, R67K) were prepared using the pCold-PDI vector as previously described with modifications. DNA fragments encoding human Siglec-7 V-set domain (residues 18–144) and the mutants were sub-cloned into the pCold-PDI vector. The plasmids were transformed into Escherichia coli Origami B (DE3) (Novagen), and the cells were grown at 37 °C in LB medium. After induction with isopropyl β-D-thiogalactoside (0.5 mM), the cells were cultured at 15 °C for further 16 h. Then the cells were harvested and sonicated in 20 mM Tris-HCl (pH 8.0), and containing 0.1 M NaCl and 0.1 mM EDTA. After centrifugation, the supernatant containing (His)6-PDI-fused protein was collected and applied to a Ni sepharose column (GE healthcare) equilibrated with 20 mM Tris-HCl (pH 8.0), and containing 0.1 M NaCl. After washing with 20 mM Tris-HCl (pH 8.0) containing 0.1 M NaCl and 20 mM imidazole, the protein was eluted with 20 mM Tris-HCl (pH 8.0) containing 0.1 M NaCl and 500 mM imidazole. The (His)6-PDI-fused protein was extensively dialysed against 50 mM Tris-HCl (pH 8.0) containing 0.1 M NaCl, 5 mM reduced glutathione, 0.5 mM oxidised glutathione, and 10% glycerol. The protein was then digested with TEV protease to remove the (His)6-PDI tag. The digested proteins were passed through the Ni sepharose column and the final purification was performed with a Hiroad Superdex 75 pg size exclusion column (GE healthcare) equilibrated with 20 mM Tris-HCl (pH 8.0) containing 0.1 M NaCl.
(§2) NMR spectra were collected using the DRX-600 (600 MHz) spectrometer (Bruker; Billerica, MA, US) equipped with a TXI-probe. The probe temperature was set at 283 K. Siglec-7 V-set domains (WT, R124A, R67A) were prepared with 10 mM phosphate buffer including 150 mM NaCl in D2O (D: 99%). The final protein concentration before addition of the ligand was 55 μM (pH 7.9). The 5.5 mM diSia and triSia solutions (pH 7.9) in PBS were gradually added into the protein solution to achieve the protein:ligand molar ratios of 1:0, 1:1, 1:2, 1:5, 1:10, and 1:20; the ^1H-NMR spectra were obtained with the WATERGATE pulse sequence in each protein:ligand ratio. Data were collected for 1024 scans by suppressing the residual HDO signal to 3-9-19 pulse train. Saturation Transfer Difference (STD) NMR experiments were performed at the protein:ligand ratio of 1:20. The protein signal was saturated on resonance at 0.15 ppm and off resonance at 40 ppm with a cascade of 60 selective Gaussian shaped pulses of 50 ms duration and 3 s saturation in total. The WATERGATE pulse sequence was used to suppress the residual HDO signal, and a spin-lock filter with a strength of 8 kHz and a duration of 10 ms was applied to suppress protein background signal. All STD NMR experiments were collected for 1024 scans with an inter pulse delay of 100 μs. The Sias signal assignments have been previously described by Jennings et al.[34].

Siglec-7V R124A = test system: T2, Siglec-7V R124A; test: STD-NMR and 1H-NMR titration; format: binding, human; conditions: protein:ligand 1:20, 10 °C, pH 7.9
T2 construct: DNA fragments encoding human Siglec-7 V-set domain (residues 18–144) and the mutants were sub-cloned into the pCold-PDI vector; (His)6-PDI (cleaved yes); made in house; host or cells: Escherichia coli Origami B (DE3)
Procedure: as §1, §2

Siglec-7V R67A = test system: T3, Siglec-7V R67A; test: STD-NMR and 1H-NMR titration; format: binding, human; conditions: protein:ligand 1:20, 10 °C, pH 7.9
T3 construct: DNA fragments encoding human Siglec-7 V-set domain (residues 18–144) and the mutants were sub-cloned into the pCold-PDI vector; (His)6-PDI (cleaved yes); made in house; host or cells: Escherichia coli Origami B (DE3)
Procedure: as §1, §2

[1] = target: T4, GD3-Siglec-7EcFc interaction (Homo sapiens, UniProt Q9Y286); test: Inhibition of GD3-Siglec-7EcFc binding (ELISA, double reciprocal plots); conditions: for Inhibition type: double reciprocal plots
T4 construct: the extracellular domain of Siglec-7 fused with the human IgG1 Fc region; made in house
Procedure: (§3) For ganglioside binding assay, 96-well plates (Nunc, Roskilde, Denmark) were coated with 50 μL/well of 0–6.0 µM ganglioside in ethanol and left to air dry overnight or at 37 °C for 2 h. The wells were washed three times with TBS and blocked with 1% BSA (w/v) in TBS. Siglec-7-Fc fusion protein (64 pmol/mL) was pre-complexed with a 1/1000 dilution of horseradish peroxidase-conjugated goat anti-human IgG + M + A (American Qualex) for 30 min at room temperature, and 50 μL of reaction mixture was added to each well. After 2 h incubation at room temperature, the wells were washed extensively, then 100 µL of 0.05% o-phenylenediamine in 0.1 M Tris-HCl (pH 6.8) containing 0.006% H2O2 was added and incubated at room temperature. The absorbance was then measured at 490 nm (Bio-Rad, Hercules, CA) after the addition of 100 µL of 2 N sulphuric acid. For measurement of the inhibition toward GD3-Siglec-7 interaction, inhibitors (0–200 μM for octyl-α2,8-mono/di/tri/teraSia, 0–50 μM for tetradecyl-ganglioside glycan), Siglec-7, and peroxidase conjugated anti-human IgG + IgM + IgA were pre-incubated at 25 °C for 30 min, and the reaction mixture with or without inhibitor was used as described above. All experiments were performed three times.

Siglec-7EcFc (R92A) = test system: T5, Siglec-7EcFc (R92A); test: ELISA binding of Siglec-7EcFc to immobilised gangliosides / (Neu5Ac)n-PE; design: species or system human; conditions: ligand coated on plastic wells, compared with WT
T5 construct: the extracellular domain of Siglec-7 fused with the human IgG1 Fc region; made in house
Procedure: as §3

Siglec-7EcFc (R67K) = test system: T6, Siglec-7EcFc (R67K); test: as above; design: species or system human; conditions: ligand coated on plastic wells, compared with WT
T6 construct: the extracellular domain of Siglec-7 fused with the human IgG1 Fc region; made in house
Procedure: as §3

Siglec-7EcFc (R92K) = test system: T7, Siglec-7EcFc (R92K); test: as above; design: species or system human; conditions: ligand coated on plastic wells, compared with WT
T7 construct: the extracellular domain of Siglec-7 fused with the human IgG1 Fc region; made in house
Procedure: as §3

Siglec-7EcFc (WT) = test system: T8, Siglec-7EcFc (WT); test: as above; design: species or system human; conditions: ligand coated on plastic wells
T8 construct: the extracellular domain of Siglec-7 fused with the human IgG1 Fc region; made in house
Procedure: as §3

Siglec-7EcFc (R67A) = test system: T9, Siglec-7EcFc (R67A); test: as above; design: species or system human; conditions: ligand coated on plastic wells, compared with WT
T9 construct: the extracellular domain of Siglec-7 fused with the human IgG1 Fc region; made in house
Procedure: as §3

T4 sequence (Q9Y286 19-353 limits assumed): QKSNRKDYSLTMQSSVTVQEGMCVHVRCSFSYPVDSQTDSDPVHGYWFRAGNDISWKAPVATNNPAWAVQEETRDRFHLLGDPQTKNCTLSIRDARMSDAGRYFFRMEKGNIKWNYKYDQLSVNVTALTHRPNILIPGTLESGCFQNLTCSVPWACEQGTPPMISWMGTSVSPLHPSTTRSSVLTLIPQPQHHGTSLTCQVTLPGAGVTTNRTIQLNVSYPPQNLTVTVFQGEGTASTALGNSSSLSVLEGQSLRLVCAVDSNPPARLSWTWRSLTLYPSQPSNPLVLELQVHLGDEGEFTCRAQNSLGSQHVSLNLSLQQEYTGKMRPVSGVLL

Row | binding in solution (STD-NMR) (Siglec-7V WT) | binding in solution (STD-NMR) (Siglec-7V R124A) | binding in solution (STD-NMR) (Siglec-7V R67A) | Inhibition type [1] | binding activity (ELISA) (Siglec-7EcFc (WT)) | Molecule | also measured
1 | – | – | – | – | higher binding activity | Neu5Acα2 → 8Neu5Aα2 → 3Galβ1 → 4Glc-Cer [GD3] | binding activity (ELISA) (Siglec-7EcFc (R92A)): almost the same binding activity; binding activity (ELISA) (Siglec-7EcFc (R67K)): significantly lower binding activity; binding activity (ELISA) (Siglec-7EcFc (R92K)): almost the same binding activity; binding activity (ELISA) (Siglec-7EcFc (R67A)): significantly lower binding activity; also recorded: did not effectively bind
2 | – | – | – | – | Almost no binding activity | Neu5Aα2 → 3Galβ1 → 4Glc-Cer [GM3] | –

More lines, now with the values behind:

Row | Molecule | binding in solution (STD-NMR) (Siglec-7V WT) | binding in solution (STD-NMR) (Siglec-7V R124A) | binding in solution (STD-NMR) (Siglec-7V R67A) | Inhibition type [1] | binding activity (ELISA) (Siglec-7EcFc (WT)) | also measured
3 | CC(=O)NC1C(O)CC(OC(CO)C(O)C2OC(O)(C(=O)O)CC(O)C2NC(C)=O)(C(=O)O)OC1C(O)C(O)CO (stereo not shown) [diSia, Neu5Acα(2-8)Neu5Ac-OH] | obviously recognised | very little or no interactions | obviously recognised | – | – | –
4 | CC(=O)NC1C(O)CC(OC(CO)C(O)C2OC(OC(CO)C(O)C3OC(O)(C(=O)O)CC(O)C3NC(C)=O)(C(=O)O)CC(O)C2NC(C)=O)(C(=O)O)OC1C(O)C(O)CO (stereo not shown) [triSia, Neu5Acα(2-8)Neu5Acα(2-8)Neu5Ac-OH] | involved in binding | very little or no interactions | involved in binding | – | – | –
5 | CCCCCCCCOC1(C(=O)O)CC(O)C(NC(C)=O)C(C(O)C(CO)OC2(C(=O)O)CC(O)C(NC(C)=O)C(C(O)C(O)CO)O2)O1 (stereo not drawn) [α2,8-diSia] | – | – | – | competitive inhibition | – | inhibition activity toward Siglec-7EcFc-GD3 interaction ([1]; octyl glycosides, 0–200 μM): the effect was weak
6 | CCCCCCCCOC1(C(=O)O)CC(O)C(NC(C)=O)C(C(O)C(CO)OC2(C(=O)O)CC(O)C(NC(C)=O)C(C(O)C(CO)OC3(C(=O)O)CC(O)C(NC(C)=O)C(C(O)C(O)CO)O3)O2)O1 (stereo not drawn) [α2,8-triSia] | – | – | – | non-competitive inhibition | – | pIC50 ([1]; octyl glycosides, 0–200 μM, GD3-coated plate): > 4.00
